Results on 15 compounds are retold here after patent publication US4447453A, “Anti-peptic ulcer agent” (Chugai Seiyaku Kabushiki Kaisha, priority 1980, dated 1984).

By inhibition in vivo is commonly meant how much of the control response was suppressed. Low values mean a response near the control, high ones a response far below the control. Broadly, the inhibition is the relative decrease from the control value, in per cent. The term LD50 denotes the dose expected to kill half of the subjects tested.

For data set [1], the system named is rats with stress-induced ulcer. Description: Restraint and water immersion stress ulcer test in rats (Takagi et al.). Conditions: for inhibition in vivo at 50 mg/kg / inhibition in vivo at 100 mg/kg / inhibition in vivo at 200 mg/kg: Rattus norvegicus. It counts as in vivo, rat (Sprague-Dawley, male). How it is done: Groups of 7-week-old Sprague-Dawley male rats each consisting of 10 members were starved for 24 hours and administered orally the compounds of the present invention. Ten minutes later, they were confined in a restrainer cage according to the method of Takagi et al. (Japanese Journal of Pharmacology, 18, 9-18, 1968), and the cage was placed vertically in a water tank at 23°-24° C. until the rats were immersed in the water to the depth of the processus xiphoideus. Sixteen hours later, the rats were killed with excess ether and had their stomach removed. Each stomach was incised along the greater curvature after the surface of the gastric mucosa and serous membrane was lightly fixed with 1% formalin. The diameter (mm) of the ulcers developed in each rat was summed and the sum was used as the ulcer index for each rat.
The activity of the compounds of the present invention to cure peptic ulcer was measured as in Example 2.

In data set [2] the test system is ulcers developed in Shay rats. Kind of data set: Pylorus ligation (Shay) ulcer test in rats. It counts as in vivo, rat (Sprague-Dawley, male). How it is done:
Groups of 8-week-old Spraque-Dawley male rats each consisting of 10 members were starved for 48 hours, anaethesized with ether and had their pylorus ligated in accordance with the method of Shay et al. (Gasteroenterology, 5, 43-61, 1945). Immediately thereafter, they were administered the compounds of the present invention intra-duodenally or intraperitoneally. Eighteen hours later, they were killed with excess ether and the gastric mucus membrane was removed and observed under a stereoscopic microscope (×10). The diameter (mm) of the ulcers developed in each rat was summed and the sum was used as the ulcer index of each rat.
The activity of the compounds of the present invention to cure peptic ulcer was measured as in Example 1. The test compound was administered in the duodenum.

The nature of data set [3]: Acute oral toxicity (LD50) in ddY mice. As to conditions: mouse, in vivo, male ddY mice, suspension in 2% aqueous gum arabic. How it is done:
The compounds listed above have very low toxicity, and the first six compounds have following the LD50 values when they are administered orally to ddY strain male mice (5 weeks old and weighing from 26-30 g) in the form of a suspension in a 2% aqueous gum arabic: […]

Setting [4] is: Table 2, oral, 50 mg/kg, 16 h immersion.
[5] abbreviates: Table 2, oral, 100 mg/kg, 16 h immersion.
Where [6] appears, read: Table 2, oral, 200 mg/kg, 16 h immersion.
The mark [7] stands for this setting: Table 1, intra-duodenal, 50 mg/kg, 18 h.
[8] abbreviates: Table 1, intra-duodenal, 100 mg/kg, 18 h.
Setting [9] is: Table 1, intra-duodenal, 200 mg/kg, 18 h.
The mark [10] stands for this setting: Table 1, intra-peritoneal, 50 mg/kg, 18 h.
[11] abbreviates: Table 4, as in Example 2 (oral), 200 mg/kg.
The mark [12] stands for this setting: Table 3, administered in the duodenum, 100 mg/kg.

Take `Cc1c(Cl)ccc(C(=O)O)c1Nc1ccccc1C(=O)O` [Compound 5]: the inhibition in vivo at 50 mg/kg in data set [1] (setting [4]) is 38.5%. For the same compound, the inhibition in vivo at 100 mg/kg in data set [1] (setting [5]) stood at 88.2%. This compound also gave an inhibition in vivo at 200 mg/kg in data set [1] (setting [6]) of 100%. Also, the “ulcer index (means ± S.E.)” value in data set [1] (setting [4]) is 9.6 ± 4.4 mm; in data set [1] (setting [5]), 1.8 ± 0.9 mm; in data set [1] (setting [6]) it was 0 mm; in data set [2] (setting [7]), 1.3 ± 0.6 mm; in data set [2] (setting [8]), 0.1 ± 0.1 mm; in data set [2] (setting [9]), 0 mm. Besides, the “ulcer index (means ± S.E.)” value in data set [2] (setting [10]) came to 0 mm. For the same compound, the inhibition in data set [2] (setting [7]) came out at 67.1%; in data set [2] (setting [8]), 96.6%; in data set [2] (setting [9]), 100%; in data set [2] (setting [10]), 100%. This compound yielded an LD50 in data set [3] of 1250 mg/kg.

With `Cc1cc(Nc2ccccc2C(=O)O)c(C(=O)O)cc1C` [Compound 10], in data set [1] (setting [11]), the inhibition in vivo at 200 mg/kg was found to be 90.1% and the “ulcer index (means ± S.E.)” value was found to be 3.8 ± 1.5 mm. Besides, in data set [2] (setting [12]), the inhibition is 100.0% and the “ulcer index (means ± S.E.)” value is 0 ± 0 mm.

For the compound `COc1cc(Nc2ccccc2C(=O)O)c(C(=O)O)cc1OC` [Compound 7], in data set [1] (setting [11]), testing at 200 mg/kg gave an inhibition in vivo of 98.4% and the “ulcer index (means ± S.E.)” value amounted to 0.2 ± 0.1 mm.

Turning to `Cc1ccc(Nc2cc(Cl)ccc2C(=O)O)c(C(=O)O)c1` [Compound 2], in data set [1] (setting [4]), the inhibition in vivo at 50 mg/kg is 22.5%. For the same compound, in data set [1] (setting [5]), 100 mg/kg produced 89.2% inhibition in vivo. In data set [1] (setting [6]), this compound registered an inhibition in vivo at 200 mg/kg of 100%. Moreover, the “ulcer index (means ± S.E.)” value was found to be 12.0 ± 6.2 mm in data set [1] (setting [4]); 1.7 ± 1.2 mm in data set [1] (setting [5]); 0 mm in data set [1] (setting [6]); 0.5 ± 0.3 mm in data set [2] (setting [7]); 0.3 ± 0.3 mm in data set [2] (setting [8]); 0 mm in data set [2] (setting [9]). Further, the “ulcer index (means ± S.E.)” value in data set [2] (setting [10]) is listed as 0.8 ± 0.4 mm. Moreover, the inhibition in data set [2] (setting [7]) came out at 87.8%; in data set [2] (setting [8]) it was 92.7%; in data set [2] (setting [9]) it was 100%; in data set [2] (setting [10]), 80.7%. Moreover, the LD50 in data set [3] is over 1500 mg/kg.

Turning to `Cc1ccc(C)c(C(=O)O)c1Nc1cc(Cl)ccc1C(=O)O` [Compound 4], in data set [3], the LD50 is 3000 mg/kg.

In data set [1] (setting [4]), `Cc1ccc(C(=O)O)c(Nc2ccccc2C(=O)O)c1` [Compound 6] came in with an inhibition in vivo at 50 mg/kg of 34.3%. The compound also gave an inhibition in vivo at 100 mg/kg in data set [1] (setting [5]) of 92.9%. This compound displayed an inhibition in vivo at 200 mg/kg in data set [1] (setting [6]) of 100%. The “ulcer index (means ± S.E.)” value in data set [1] (setting [4]) stood at 12.1 ± 3.5 mm; in data set [1] (setting [5]), 1.5 ± 1.1 mm; in data set [1] (setting [6]), 0 mm; in data set [2] (setting [7]), 1.4 ± 0.7 mm; in data set [2] (setting [8]), 0.3 ± 0.3 mm; in data set [2] (setting [9]), 0 mm. In data set [2] (setting [10]), the “ulcer index (means ± S.E.)” value came out at 2.0 ± 0.7 mm. Also, the inhibition was determined as 58.6% in data set [2] (setting [7]), 92.5% in data set [2] (setting [8]), 100% in data set [2] (setting [9]) and 48.6% in data set [2] (setting [10]). The same compound came in with an LD50 in data set [3] of over 2000 mg/kg.

In the case of `O=C(O)c1ccc(Cl)cc1Nc1cc(Cl)ccc1C(=O)O` [Compound 3], the inhibition in vivo at 50 mg/kg in data set [1] (setting [4]) is 23.3%. In data set [1] (setting [5]), this compound registered an inhibition in vivo at 100 mg/kg of 49.5%. Besides, in data set [1] (setting [6]), 200 mg/kg produced 92% inhibition in vivo. Besides, the “ulcer index (means ± S.E.)” value stood at 14.3 ± 3.9 mm in data set [1] (setting [4]); 9.4 ± 4.8 mm in data set [1] (setting [5]); 1.5 ± 0.8 mm in data set [1] (setting [6]); 2.3 ± 0.7 mm in data set [2] (setting [7]); 0.9 ± 0.6 mm in data set [2] (setting [8]); 0 mm in data set [2] (setting [9]). Besides, the “ulcer index (means ± S.E.)” value in data set [2] (setting [10]) was determined as 0.3 ± 0.3 mm. Further, the inhibition in data set [2] (setting [7]) turned out to be 33.7%; in data set [2] (setting [8]), 78.0%; in data set [2] (setting [9]), 100%; in data set [2] (setting [10]) it was 95.7%. Further, the LD50 in data set [3] is over 2000 mg/kg.

With `Cc1ccc(C(=O)O)c(Nc2ccccc2C(=O)O)c1C` [Compound 14], in data set [1] (setting [11]), the inhibition in vivo at 200 mg/kg worked out at 90.9% and the “ulcer index (means ± S.E.)” value is 3.5 ± 1.6 mm. In data set [2] (setting [12]), the inhibition came out at 78.5% and the “ulcer index (means ± S.E.)” value was 0.4 ± 0.4 mm.

Consider `Cc1cc(Nc2cc(Cl)ccc2C(=O)O)c(C(=O)O)cc1C` [Compound 15], for which, in data set [1] (setting [11]), at 200 mg/kg the inhibition in vivo was 78.8% and the “ulcer index (means ± S.E.)” value worked out at 8.2 ± 3.2 mm.

Consider `Cc1cc(C)c(C(=O)O)c(Nc2cc(Cl)ccc2C(=O)O)c1` [Compound 13], for which, in data set [1] (setting [11]), the inhibition in vivo at 200 mg/kg worked out at 70% and the “ulcer index (means ± S.E.)” value was 11.6 ± 6.2 mm. For the same compound, in data set [2] (setting [12]), the inhibition is recorded as 50.0% and the “ulcer index (means ± S.E.)” value worked out at 1.0 ± 0.7 mm.

As to `Cc1cc(C)c(C(=O)O)c(Nc2ccccc2C(=O)O)c1` [Compound 11], in data set [1] (setting [11]), the inhibition in vivo at 200 mg/kg worked out at 96.9% and the “ulcer index (means ± S.E.)” value is on record as 1.2 ± 0.9 mm. For the same compound, in data set [2] (setting [12]), the inhibition stood at 60.0% and the “ulcer index (means ± S.E.)” value is 1.4 ± 0.6 mm.

Take `Cc1cc(C(=O)O)c(Nc2ccccc2C(=O)O)cc1Cl` [Compound 12]: in data set [1] (setting [11]), the inhibition in vivo at 200 mg/kg is 96.7% and the “ulcer index (means ± S.E.)” value is 1.3 ± 0.7 mm. In data set [2] (setting [12]), the inhibition was 91.8% and the “ulcer index (means ± S.E.)” value turned out to be 0.3 ± 0.3 mm.

The compound `O=C(O)c1ccccc1Nc1cc(Cl)ccc1C(=O)O` [Compound 1] had an LD50 in data set [3] of 2100 mg/kg.

In the case of `Cc1ccc(C(=O)O)c(Nc2cc(Cl)ccc2C(=O)O)c1C` [Compound 9], in data set [1] (setting [11]), 200 mg/kg produced 83.4% inhibition in vivo and the “ulcer index (means ± S.E.)” value worked out at 6.5 ± 3.4 mm. Also, in data set [2] (setting [12]), the inhibition came to 80.1% and the “ulcer index (means ± S.E.)” value is 0.7 ± 0.7 mm.

As for `COc1ccc(C(=O)O)c(Nc2cc(Cl)ccc2C(=O)O)c1` [Compound 8], in data set [1] (setting [11]), the inhibition in vivo at 200 mg/kg worked out at 96.7% and the “ulcer index (means ± S.E.)” value was 1.7 ± 1.3 mm. Further, in data set [2] (setting [12]), the inhibition is 100.0% and the “ulcer index (means ± S.E.)” value was 0 ± 0 mm.
